Laboratory results from patent publication US10172848B2, “Gap junction-enhancing agents for treatment of necrotizing enterocolitis and inflammatory bowel disease” (University of Pittsburgh—of the Commonwealth System of …, priority 2010, dated 2019).
Square brackets hold non-standard residues; d marks the D form. Peptide text beside a SMILES is read from it. dHyp = O=C(O)[C@H]1C[C@H](O)CN1

Tests used:
[1] = qualitative statement, no test described; cited from earlier work
IEC-6 cells = experiment: migration into a scraped wound; format: cell-based; settings: migration into a scraped wound over 20 hours, increasing PMA concentration, FIG. 10B
Procedure: (§1) FIG. 10A-B. (A) IEC-6 enterocytes were treated with the concentrations of phorbol myristate acetate (“PMA”) indicated for one hour and then evaluated for the extent of enterocyte gap junction communication by confocal based dye transfer. The untreated cells represent the 100% dye transfer. *p<0.05 versus untreated cells. (B) IEC-6 cells were treated with the concentration of PMA indicated and assessed for their ability to migrate into a scraped wound over 20 hours. *p<0.05 vs. untreated cells. Representative of two separate experiments.
(§2) IEC-6 enterocytes were treated with various concentrations of phorbol myristate acetate (“PMA”) for one hour and then evaluated for the extent of enterocyte gap junction communication by confocal based dye transfer. […] Further, IEC-6 cells were treated with the concentration of PMA indicated and assessed for their ability to migrate into a scraped wound over 20 hours.

IEC-6 enterocytes = experiment: enterocyte gap junction communication by confocal based dye transfer; format: cell-based; settings: IEC-6 enterocytes treated with various concentrations of PMA for one hour; untreated cells = 100% dye transfer; FIG. 10A
Procedure: as §1, §2

For NCC(=O)N1C[C@H](NC(=O)c2ccccc2)C[C@H]1C(=O)O [GAP-134, (2S,4R)-1-(2-aminoacetyl)-4-benzamido-pyrrolidine-2-carboxylic acid], the half-life [1] is given as “shorter half-life than ZP123”.

With CCCCCCCCCCCCCC(=O)O[C@@H]1[C@@H](C)[C@@]2(O)[C@@H](C=C(CO)C[C@]3(O)C(=O)C(C)=C[C@@H]23)[C@@H]2C(C)(C)[C@]12OC(C)=O [PMA, phorbol myristate acetate] the “speed (rate) of enterocyte migration” value (IEC-6 cells) was “the speed (rate) of enterocyte migration also increased” and the “extent of gap junction communication (dye transfer)” value (IEC-6 enterocytes) was “as concentrations of PMA increased, so did the extent of gap junction communication”.

In the case of CC(=O)N[C@H](Cc1ccc(O)cc1)C(=O)N1CCC[C@@H]1C(=O)N1C[C@@H](O)C[C@@H]1C(=O)NCC(=O)N[C@H](C)C(=O)NCC(N)=O [Rotigaptide, (2R, 4S)-1-[(2R)-1-[(2R)-2-acetamido-3-(4-hydroxyphenyl)propanoyl]pyrrolidine-2-carbonyl]-N-[2-[[(2R)-1-[(2-amino-2-oxoethyl)amino]-1-oxopropan-2-yl]amino]-2-oxoethyl]-4-hydroxypyrrolidine-2-carboxamide] (Ac-[dY][dP][dHyp]G[dA]G-NH2), the half-life [1] is listed as “long half-life” and the stability [1] is listed as “stable”.
